This is an account of results in patent US20190241535A1, “3-SUBSTITUTED CARBONYL-NAPHTHO[2,3-B]FURANE DERIVATIVE OR PHARMACEUTICALLY ACCEPTABLE SALT THEREOF” (Boston Biomedical, Inc., priority 2014, published 2019).

The test system of series [1] is HCT-116 cell. The series can be described thus: Test 1: growth inhibition in cancer cell (Bulk IC50). The note with it: Homo sapiens, 96 h, adherent culture, incubated 4 days, CellTiter-Glo. The class given is cell-based. The method, then:
(§1) HCT-116 cell, HT-29 cell, and FaDu cell were obtained from the American Type Culture Collection (ATCC). HCT-116 cell and HT-29 cell were cultivated at 37° C. in the presence of 5% CO2 using McCoy's 5a medium containing 10% fetal bovine serum (FBS), and 1% penicillin/streptomycin; and FaDu cell was cultivated at 37° C. in the presence of 5% CO2 using MEM containing 10% FBS, 1% non-essential amino acid, 1% sodium pyruvate, and 1% penicillin/streptomycin. Each cell was seeded on μClear-plate black 384 wells (Greiner bio-one Cat. No. 781091) in 300-600 cells/well, and then each test sample was added thereto to adjust the final concentration thereof in DMSO to 0.1% and the test wells were incubated for 4 days. And then, the viable cell count of each sample was measured using CellTiter-Glo® Luminescent Cell Viability Assay (Promega), and the concentration to inhibit the cell growth in each test sample by 50% was calculated (Bulk IC50 Value; μM).

In series [2] the test system is HT-29 cell. Described as above. In kind it is cell-based. The note with it: Homo sapiens, 96 h, adherent culture, incubated 4 days, CellTiter-Glo. How it is done:
as §1

The test system of series [3] is FaDu cell. The description is as above. The class given is cell-based. The following applies: Homo sapiens, 96 h, adherent culture, incubated 4 days, CellTiter-Glo. How it is done:
as §1

For series [4], the system named is HCT-116 cell. The series can be described thus: Test 2: inhibition of forming cancer cell sphere (Sphere IC50). In kind it is cell-based. The note with it: Homo sapiens, 96 h, ultra-low attachment plate, serum-free sphere medium, 4 days, CellTiter-Glo. The method, then: (§2) HCT-116 cell, HT-29 cell, and FaDu cell were obtained from the American Type Culture Collection (ATCC). HCT-116 cell and HT-29 cell were cultivated at 37° C. in the presence of 5% CO2 using McCoy's 5a medium containing 10% fetal bovine serum (FBS), and 1% penicillin/streptomycin; and FaDu cell was cultivated at 37° C. in the presence of 5% CO2 using MEM containing 10% FBS, 1% non-essential amino acid, 1% sodium pyruvate, and 1% penicillin/streptomycin. Each of HCT-116 cell, HT-29 cell, and FaDu cell was seeded on 384 Wells Black Clear Bottom Ultra-Low Attachment Microplate (Corning Cat. No. 3827) in 350-800 cells/well, with DMEM/F12 medium containing 2% B27 supplement (GIBCO), 20 ng/mL epidermal growth factor (EGF) (peprotech), 10 ng/mL basic fibroblast growth factor (bFGF) (peprotech), 5 μg/mL insulin (Sigma), and 1% penicillin/streptomycin. Each test sample was added thereto to adjust the final concentration thereof in DMSO to 0.1% and the test wells were incubated for 4 days. And then, the viable cell count of each sample was measured using CellTiter-Glo® Luminescent Cell Viability Assay (Promega), and the concentration to inhibit the cell growth in each test sample by 50% was calculated (Sphere IC50 Value;μM).

For series [5], the system named is HT-29 cell. The series is described as above. The following applies: Homo sapiens, 96 h, ultra-low attachment plate, serum-free sphere medium, 4 days, CellTiter-Glo. The class given is cell-based. How it is done:
as §2

The subject of series [6] is FaDu cell. The description is as above. In kind it is cell-based. The note with it: Homo sapiens, 96 h, ultra-low attachment plate, serum-free sphere medium, 4 days, CellTiter-Glo. How it is done: as §2
A short description of another series: Test 3: solubility test. The following applies: kinetic from dmso stock, 1% DMSO, HPLC. The class given is physicochemical. The method, then:
Each 15 μL of each test sample (10 mM DMSO solution) was dispensed into 4 Utubes on a 96 well rack. Then, each sample was evaporated to dryness with a rotary evaporator. 3 μL of DMSO was added to each dried sample to be re-dissolved. And, 300 μL of pH 7.4 buffer was added to the 2 wells and 300 μL of pH 1.2 buffer was added to the other 2 wells. After shaking each sample solution, the samples were still stood. Then, each sample solution was centrifuged to remove insoluble matter, and 100 μL of the supernatant was picked up on a 96 well plate. Separately, 2 μL of each test sample (10 mM DMSO solution) was dispensed on a 96 well plate, and diluted with 198 μL of 50% acetonitrile to prepare each 100 μM standard solution. Further, the 100 μM standard solution was diluted with 50% acetonitrile to prepare each 10 μM standard solution. The above test samples for the solubility test and the two kinds of the standard samples were analyzed with a HPLC. The solubility of each test sample was calculated as an area ratio per the standard solutions.

[7] abbreviates: aqueous buffer, pH 7.4 buffer, read-out: Solubility pH 7.4.
Where [8] appears, read: simulated gastric fluid, pH 1.2 buffer, read-out: Solubility pH 1.2.

Converted amounts (≈) assume the structure as drawn. Where a name gives a salt, the structure may show the parent alone. Read-outs that look alike come from different tables or passages of the source.

In the case of `COC(=O)c1c(C(F)(F)F)oc2c1C(=O)c1ccccc1C2=O` [Example 6, Methyl 4,9-dioxo-2-(trifluoromethyl)-4,9-dihydronaphtho[2,3-b]furan-3-carboxylate], the IC50 in the series with HCT-116 cell [1] amounted to 2350 nM; with HT-29 cell [2], 2840 nM; in the series with FaDu cell [3], 2610 nM; in the series on HCT-116 cell [4], 2830 nM; with HT-29 cell [5], 3050 nM; in the series with FaDu cell [6], 3630 nM.

For the compound `CN(C)C(=O)c1c(C(F)(F)F)oc2c1C(=O)c1ccccc1C2=O` [Example 21, N,N-dimethyl-4,9-dioxo-2-(trifluoromethyl)-4,9-dihydronaphtho[2,3-b]furan-3-carboxamide], the IC50 is 270 nM with HCT-116 cell [1]; 300 nM in the series with HT-29 cell [2]; 300 nM with FaDu cell [3]; 320 nM in the series on HCT-116 cell [4]; 320 nM in the series on HT-29 cell [5]; 410 nM with FaDu cell [6]. The figures for the solubility in the series “Test 3: solubility test” (setting [7]) and in the series “Test 3: solubility test” (setting [8]) were 38 µg/mL (≈ 113 µM) and 63 µg/mL (≈ 187 µM), respectively.

As to `CC(=O)c1oc2c(c1C(=O)N(C)C)C(=O)c1ccccc1C2=O` [Example 4, 2-Acetyl-N,N-dimethyl-4,9-dioxo-4,9-dihydronaphtho[2,3-b]furan-3-carboxamide], the IC50 in the series with HCT-116 cell [1] turned out to be 590 nM; with HT-29 cell [2], 710 nM; in the series on FaDu cell [3], 560 nM; with HCT-116 cell [4], 3360 nM; in the series on HT-29 cell [5], 850 nM; with FaDu cell [6], 710 nM. The solubility was 107 µg/mL (≈ 344 µM) in the series “Test 3: solubility test” (setting [7]) and 115 µg/mL (≈ 369 µM) in “Test 3: solubility test” (setting [8]).

In the case of `CN(C)C(=O)c1c(-c2ccc(F)cc2)oc2c1C(=O)c1ccccc1C2=O` [Example 11, 2-(4-Fluorophenyl)-N,N-dimethyl-4,9-dioxo-4,9-dihydronaphtho[2,3-b]furan-3-carboxamide], the IC50 in the series on HCT-116 cell [1] was found to be 5310 nM; in the series on HT-29 cell [2], 5760 nM; with FaDu cell [3], 4470 nM; in the series on HCT-116 cell [4], 5430 nM; in the series with HT-29 cell [5], 5840 nM; in the series with FaDu cell [6], 4460 nM. In addition, the solubility in the series “Test 3: solubility test” (setting [7]) and in “Test 3: solubility test” (setting [8]) was less than 0.1 µg/mL each time.

For `CC(=O)c1oc2c(c1C(=O)N1CCOCC1)C(=O)c1ccccc1C2=O` [Example 14, 2-Acetyl-3-(morpholine-4-carbonyl)naphtho[2,3-b]furan-4,9-dione], the IC50 in the series with HCT-116 cell [1] stood at 740 nM; with HT-29 cell [2] it was 3580 nM; with FaDu cell [3] it was 750 nM; in the series with HCT-116 cell [4], 1800 nM; in the series on HT-29 cell [5] it was 710 nM; in the series on FaDu cell [6] it was 540 nM. Also, the solubility was 121 µg/mL (≈ 342 µM) in “Test 3: solubility test” (setting [7]) and 131 µg/mL (≈ 371 µM) in the series “Test 3: solubility test” (setting [8]).

Regarding `COC(=O)c1c(C(C)(OC)OC)oc2c1C(=O)c1ccccc1C2=O` [Example 1, Methyl 2-(1,1-dimethoxyethyl)-4,9-dioxo-4,9-dihydronaphtho[2,3-b]furan-3-carboxylate], the IC50 in the series on HCT-116 cell [1] was 440 nM; in the series with HT-29 cell [2] it was 2250 nM; with FaDu cell [3], 380 nM; in the series on HCT-116 cell [4] it was 1730 nM; in the series with HT-29 cell [5], 2180 nM; with FaDu cell [6], 2150 nM.

Regarding `COC(=O)c1c(-c2cccnc2)oc2c1C(=O)c1ccccc1C2=O` [Example 12, Methyl 4,9-dioxo-2-(pyridin-3-yl)-4,9-dihydronaphtho[2,3-b]furan-3-carboxylate], the IC50 with HCT-116 cell [1] is 6960 nM; with HT-29 cell [2], greater than 10000 nM; in the series on FaDu cell [3] it was 2340 nM; with HCT-116 cell [4], greater than 10000 nM; with HT-29 cell [5], greater than 10000 nM; in the series with FaDu cell [6] it was 5790 nM.

Take `COC(=O)c1c(C(C)=O)oc2c1C(=O)c1ccccc1C2=O` [Example 2, Methyl 2-acetyl-4,9-dioxo-4,9-dihydronaphtho[2,3-b]furan-3-carboxylate]: the IC50 with HCT-116 cell [1] was 280 nM; in the series on HT-29 cell [2], 340 nM; in the series on FaDu cell [3], 320 nM; with HCT-116 cell [4] it was 380 nM; in the series on HT-29 cell [5], 400 nM; with FaDu cell [6], 590 nM. In addition, the solubility in “Test 3: solubility test” (setting [7]) is 0.5 µg/mL (≈ 1.68 µM); in the series “Test 3: solubility test” (setting [8]), 0.8 µg/mL (≈ 2.68 µM).

For the compound `CC(=O)c1oc2c(c1C(=O)N1CCN(C)CC1)C(=O)c1ccccc1C2=O` [Example 5, 2-Acetyl-3-(4-methylpiperazine-1-carbonyl)naphtho[2,3-b]furan-4,9-dione hydrochloride], the IC50 was found to be 620 nM in the series with HCT-116 cell [1]; 570 nM in the series with HT-29 cell [2]; 540 nM in the series with FaDu cell [3]; 3100 nM in the series on HCT-116 cell [4]; 600 nM with HT-29 cell [5]; 660 nM with FaDu cell [6]. In addition, the solubility is 127 µg/mL in the series “Test 3: solubility test” (setting [7]) and 152 µg/mL in “Test 3: solubility test” (setting [8]).
